Experimental findings from EP0211490B1, “Antibiotics of the vancomycin-class” (SMITHKLINE BEECHAM CORPORATION, priority 1985, dated 1987) are described below.

Bridge positions count the residues as written; N and C are the ends. Square brackets hold non-standard residues; d marks the D form. Peptide text beside a SMILES is read from it. * marks the point of attachment. Ileψ(thiazoline)Cys = CC[C@H](C)[C@H](N)C1=N[C@H](C(=O)*)CS1; dOrn = NCCC[C@@H](N)C(=O)O

The subject of one assay is Staph. aureus HH 127. Kind of assay: in vivo activity against intraperitoneal infection in mice (ED50). The conditions noted are these: Staphylococcus aureus, HH127, read-out: ED₅₀. As for the experimental part:
The ED₅₀'s were as follows: AAD 216 aglycone, 7.6 mg/kg; AAD 216 pseudo- aglycone, 7.6 mg/kg; AAD 216A pseudoaglycone, 5.0 mg./kg; vancomycin, 1.56 mg/kg. Similarly, the ED₅₀'s of AAD 216A pseudoaglycone, AAD 216B pseudoaglycone, AAD 216C pseudoaglycone and vancomycin, determined by utilizing a similar protocol, were 12.5 mg/kg, 7.6 mg/kg, 10.8 mg/kg and 1.92 mg/kg, respectively.
For the molecule `CNC1C(=O)NC2C(=O)NC(C(=O)NC3C(=O)NC4C(=O)NC(C(=O)NC(C(=O)O)c5cc(O)cc(O)c5-c5cc4ccc5O)C(O)c4cc(Cl)c(c(Cl)c4)Oc4cc3cc(c4O)Oc3ccc(cc3Cl)C2O)c2cc(cc(O)c2Cl)Oc2cc1ccc2O` (stereo not shown) [AAD 216 aglycone], the ED50 worked out at 7.6 mg/kg.

In a further assay the test system is K. aridum. Kind of assay: susceptibility of K. aridum to antibiotic disks (diffusion method). Type of assay: cell-based, Kibdelosporangium aridum. Particulars: BBL susceptibility disks, content per antibiotic; one week at 28°C. The method, then: Susceptibility of K. aridum to antibiotics was examined by placing BBL susceptibility disks on nutrient agar plates seeded with K. aridum as an overlay. Diameters of the zones of inhibition were measured after incubation for one week at 28°C.
Susceptibility to Antibiotics. By the diffusion method, K. aridum was resistant to disks impregnated with gentamicin (10 µg), tobramycin (10 µg), streptomycin (10 µg), vancomycin (30 µg), penicillin (10 units), bacitracin (2 units), lincomycin (2 µg), clindamycin (2 µg), and cephalothin (30 µg). Chlortetracycline (5 µg) produced 18 mm zones of inhibition; tetracycline (5 µg) 11-12 mm zones; rifampin (5 µg) 11-15 mm zones; novobiocin (5 µg) 27-28 mm zones. All zones of inhibition contained at least a few resistant colonies.
Consider gentamicin, for which the “susceptibility by the diffusion method (in words)” value (shortened to “susceptibility”) is given as “resistant”.
`CC[C@H](C)[C@H](N)C1=N[C@H](C(=O)N[C@@H](CC(C)C)C(=O)N[C@H](CCC(=O)O)C(=O)N[C@H](C(=O)N[C@H]2CCCCNC(=O)[C@H](CC(N)=O)NC(=O)[C@@H](CC(=O)O)NC(=O)[C@H](Cc3cnc[nH]3)NC(=O)[C@@H](Cc3ccccc3)NC(=O)[C@H]([C@@H](C)CC)NC(=O)[C@@H](CCCN)NC2=O)[C@@H](C)CC)CS1` [bacitracin] ({Ileψ(thiazoline)Cys}-L[dE]IK[dOrn]I[dF]H[dD]N; lactam 4-C): the “susceptibility” value is reported as “resistant”.
Still for that read-out and setting: for `[H]/N=C(/N)N[C@H]1[C@H](O)[C@@H](O)[C@H](O[C@@H]2O[C@@H](C)[C@](O)(C=O)[C@H]2O[C@@H]2O[C@@H](CO)[C@H](O)[C@@H](O)[C@@H]2NC)[C@@H](N/C(N)=N\[H])[C@@H]1O` [streptomycin] the value was “resistant”; for `CN[C@H](CC(C)C)C(=O)N[C@H]1C(=O)N[C@@H](CC(N)=O)C(=O)N[C@H]2C(=O)N[C@H]3C(=O)N[C@H](C(=O)N[C@H](C(=O)O)c4cc(O)cc(O)c4-c4cc3ccc4O)[C@H](O)c3ccc(c(Cl)c3)Oc3cc2cc(c3O[C@@H]2O[C@H](CO)[C@@H](O)[C@H](O)[C@H]2O[C@H]2C[C@](C)(N)[C@H](O)[C@H](C)O2)Oc2ccc(cc2Cl)[C@H]1O` [vancomycin], “resistant”; for penicillin, “resistant”.
For `CCC[C@@H]1C[C@@H](C(=O)N[C@@H]([C@H]2O[C@H](SC)[C@H](O)[C@@H](O)[C@H]2O)[C@@H](C)O)N(C)C1` [lincomycin], the “susceptibility” value is listed as “resistant”.
Same read-out and setting: for `CC(=O)OCC1=C(C(=O)O)N2C(=O)[C@@H](NC(=O)Cc3cccs3)[C@H]2SC1` [cephalothin] the value was “resistant”.
For the molecule `NC[C@H]1O[C@H](O[C@H]2[C@H](O)[C@@H](O[C@H]3O[C@H](CO)[C@@H](O)[C@H](N)[C@H]3O)[C@H](N)C[C@@H]2N)[C@H](N)C[C@@H]1O` [tobramycin], the “susceptibility” value was “resistant”.

The assay is the same for the next values; noted with them: disk 5 µg; nutrient agar seeded with K. aridum, one week at 28°C; zones contained a few resistant colonies.
With `CO[C@H]1/C=C/O[C@@]2(C)Oc3c(C)c(O)c4c(O)c(c(/C=N/N5CCN(C)CC5)c(O)c4c3C2=O)NC(=O)/C(C)=C\C=C\[C@H](C)[C@H](O)[C@@H](C)[C@@H](O)[C@@H](C)[C@H](OC(C)=O)[C@@H]1C` [rifampin], the zones of inhibition was 11-15 mm.
Still for that read-out and setting: for `CO[C@@H]1[C@@H](OC(N)=O)[C@@H](O)[C@H](Oc2ccc3c(O)c(NC(=O)c4ccc(O)c(CC=C(C)C)c4)c(=O)oc3c2C)OC1(C)C` [novobiocin] the value was 27-28 mm; for `CN(C)[C@@H]1C(O)=C(C(N)=O)C(=O)[C@@]2(O)C(O)=C3C(=O)c4c(O)cccc4[C@@](C)(O)[C@H]3C[C@@H]12` [tetracycline], 11-12 mm.
`CN(C)[C@@H]1C(O)=C(C(N)=O)C(=O)[C@@]2(O)C(O)=C3C(=O)c4c(O)ccc(Cl)c4[C@@](C)(O)[C@H]3C[C@@H]12` [Chlortetracycline] gave a zones of inhibition of 18 mm.
